Test results taken from PMC12717121, “ABA-independent PP2C-binding in PYLs traces to bacterial origins and persists in land plants” (Nature Communications, 2025).

Legend:
ABI1 (AtABI1) = target: T1, ABI1 (AtABI1) (Arabidopsis thaliana, UniProt P49597); experiment: phosphatase assay, A405; type: biochemical; conditions: 50 mM pNPP, 0.5 μM PP2C, 33 mM Tris-OAc pH 7.9, 25 mM Mg(OAc)2
T1 construct: GST-ABI1 (pGEX-6P-1), E. coli BL21(DE3)
T1 sequence (P49597 1-434): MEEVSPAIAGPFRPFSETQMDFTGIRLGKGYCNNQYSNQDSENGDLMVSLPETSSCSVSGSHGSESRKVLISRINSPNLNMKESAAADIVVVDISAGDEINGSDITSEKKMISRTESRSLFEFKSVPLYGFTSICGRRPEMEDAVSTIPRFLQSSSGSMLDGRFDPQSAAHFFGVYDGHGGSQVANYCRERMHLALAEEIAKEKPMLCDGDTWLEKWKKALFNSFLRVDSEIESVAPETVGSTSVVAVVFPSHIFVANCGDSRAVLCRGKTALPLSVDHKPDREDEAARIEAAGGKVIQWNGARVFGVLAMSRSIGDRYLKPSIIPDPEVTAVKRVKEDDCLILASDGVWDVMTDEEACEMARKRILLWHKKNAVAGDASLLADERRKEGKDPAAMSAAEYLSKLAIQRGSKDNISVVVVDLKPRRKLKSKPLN

PP2CA (AtPP2CA) = target: T2, PP2CA (AtPP2CA) (Arabidopsis thaliana, UniProt P49598); experiment: phosphatase assay, A405; type: biochemical; conditions: 50 mM pNPP, 0.5 μM PP2C, 33 mM Tris-OAc pH 7.9, 25 mM Mg(OAc)2
T2 construct: GST-PP2CA (pGEX-6P-1), E. coli BL21(DE3)
T2 sequence (P49598 1-399): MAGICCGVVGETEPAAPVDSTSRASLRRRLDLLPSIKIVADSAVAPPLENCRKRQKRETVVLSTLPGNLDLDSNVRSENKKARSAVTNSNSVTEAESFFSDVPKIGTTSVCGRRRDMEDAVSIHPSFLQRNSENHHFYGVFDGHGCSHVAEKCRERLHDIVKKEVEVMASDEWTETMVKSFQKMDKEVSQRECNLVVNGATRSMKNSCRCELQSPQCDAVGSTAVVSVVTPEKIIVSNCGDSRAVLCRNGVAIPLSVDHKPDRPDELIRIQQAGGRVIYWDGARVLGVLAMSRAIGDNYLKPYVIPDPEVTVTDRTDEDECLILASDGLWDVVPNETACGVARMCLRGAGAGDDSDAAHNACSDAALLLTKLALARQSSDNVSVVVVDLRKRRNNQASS

O=[N+]([O-])c1ccc(OP(=O)(O)O)cc1 [pNPP]
phosphatase assay, A405 (ABI1 (AtABI1)): Initial reaction velocities for GST-PP2Cs were measured using the synthetic phosphatase substrate pNPP
phosphatase assay, A405 (PP2CA (AtPP2CA)): Initial reaction velocities for GST-PP2Cs were measured using the synthetic phosphatase substrate pNPP
